Measurements as given in patent US5616606A, “Oligopeptide antiretroviral agents” (priority 1995, dated 1997).
Read-outs that look alike come from different tables or passages of the source.

What was measured:
[1] = test system: T4 lymphocytes (CEM cell line); test: NCI anti-HIV screen, toxicity control in uninfected cells; type: cell-based
[2] = test system: HIV-1
[3] = test system: poly(dA-dT); test: ethidium displacement assay, poly(dA-dT); settings: relative to ethidium 9.5 × 10^6 M^-1, average of repeat measurements
[4] = dose 1.79 × 10^-6 Molar, Table VI
[5] = dose 1.79 × 10^-7 Molar, Table VI
[6] = dose 1.79 × 10^-8 Molar, Table VI
[7] = dose 5.66 × 10^-6 Molar, Table VI
[8] = dose 5.67 × 10^-7 Molar, Table VI
[9] = dose 5.68 × 10^-8 Molar, Table VI
[10] = dose 5.68 × 10^-9 Molar, Table VI
[11] = HIV-1 infected CEM cells, 6 days, XTT, Tables VI-X
[12] = dose 1.34 × 10^-3 Molar, Table VII
[13] = dose 1.34 × 10^-4 Molar, Table VII
[14] = dose 1.35 × 10^-5 Molar, Table VII
[15] = dose 1.35 × 10^-6 Molar, Table VII
[16] = dose 4.26 × 10^-4 Molar, Table VII
[17] = dose 4.26 × 10^-5 Molar, Table VII
[18] = dose 4.27 × 10^-6 Molar, Table VII
[19] = dose 4.28 × 10^-7 Molar, Table VII
[20] = dose 1.05 × 10^-8 Molar, Table VIII
[21] = dose 1.09 × 10^-7 Molar, Table VIII
[22] = dose 3.31 × 10^-6 Molar, Table VIII
[23] = dose 3.31 × 10^-7 Molar, Table VIII
[24] = dose 3.32 × 10^-8 Molar, Table VIII
[25] = dose […] 10^-6 Molar, Table VIII

## Cl.Cl.Cn1cc(NC(=O)c2cc(NC(=O)c3ccc(C(=O)Nc4cc(C(=O)Nc5cc(C(=O)NCCC(=N)N)n(C)c5)n(C)c4)cc3)cn2C)cc1C(=O)NCCC(=N)N [Compound 19b, N,N'-di[1-methyl-2-[1-methyl-2-carboxamido(3-propionamidine)-4-pyrrole]-4-pyrrolyl] terephthalamide dihydrochloride]
[1]
  […] % of Control: 192.17 % of Control
[1]; Table XI
  IC50: 17.9 µM
[1]; [4]
  […] % of Control: 136.50 % of Control
[1]; [5]
  […] % of Control: 92.72 % of Control
[1]; [6]
  […] % of Control: 92.56 % of Control
[1]; [7]
  […] % of Control: 164.46 % of Control
[1]; [8]
  […] % of Control: 88.21 % of Control
[1]; [9]
  […] % of Control: 94.69 % of Control
[1]; [10]
  […] % of Control: 68.62 % of Control
[1]; uninfected CEM cells, 6 days, XTT, Tables VI-X
  IC50: > 1.79 × 10^-5 Molar
[2]; [11]
  EC50: 2080 nM
[2]; Table XI
  EC50: 1210 nM
[2]; dose 1.79 × 10^-5 Molar, Table VI
  INFECTED RESPONSE % of Control: 167.25 % of Control
[2]; [4]
  INFECTED RESPONSE % of Control: 51.73 % of Control
[2]; [5]
  INFECTED RESPONSE % of Control: 29.97 % of Control
[2]; [6]
  INFECTED RESPONSE % of Control: 33.00 % of Control
[2]; [7]
  INFECTED RESPONSE % of Control: 134.54 % of Control
[2]; [8]
  INFECTED RESPONSE % of Control: 28.86 % of Control
[2]; [9]
  INFECTED RESPONSE % of Control: 23.70 % of Control
[2]; [10]
  INFECTED RESPONSE % of Control: 39.64 % of Control
[3]
  Kapp: 4.3e+07 M⁻¹

## Cl.Cl.Cn1cc(NC(=O)c2cc(NC(=O)c3cccc(C(=O)Nc4cc(C(=O)Nc5cc(C(=O)NCCC(=N)N)n(C)c5)n(C)c4)c3)cn2C)cc1C(=O)NCCC(=N)N [Compound 20b, N,N'-di[1-methyl-2-[1-methyl-2-carboxamido(3-propionamidine)-4-pyrrole]-4-pyrrolyl] isophthalamide dihydrochloride]
[1]; [12]
  […] % of Control: 10.39 % of Control
[1]; [13]
  […] % of Control: 142.80 % of Control
[1]; [14]
  […] % of Control: 117.76 % of Control
[1]; [15]
  […] % of Control: 131.95 % of Control
[1]; [16]
  […] % of Control: -0.29 % of Control
[1]; [17]
  […] % of Control: 123.27 % of Control
[1]; [18]
  […] % of Control: 123.64 % of Control
[1]; [19]
  […] % of Control: 116.38 % of Control
[2]; [11]
  EC50: 3550 nM
[2]; [12]
  INFECTED RESPONSE % of Control: 4.26 % of Control
[2]; [13]
  INFECTED RESPONSE % of Control: 63.57 % of Control
[2]; [14]
  INFECTED RESPONSE % of Control: 117.45 % of Control
[2]; [15]
  INFECTED RESPONSE % of Control: 29.25 % of Control
[2]; [16]
  INFECTED RESPONSE % of Control: 0.02 % of Control
[2]; [17]
  INFECTED RESPONSE % of Control: 120.68 % of Control
[2]; [18]
  INFECTED RESPONSE % of Control: 64.76 % of Control
[2]; [19]
  INFECTED RESPONSE % of Control: 48.47 % of Control
[3]
  Kapp: 4.9e+07 M⁻¹

## Cl.Cl.Cn1cc(NC(=O)c2cc(NC(=O)/C=C/C(=O)Nc3cc(C(=O)Nc4cc(C(=O)NCCC(=N)N)n(C)c4)n(C)c3)cn2C)cc1C(=O)NCCC(=N)N [Compound 21b, N,N'-di[1-methyl-2-[1-methyl-2-carboxamido(3-propionamidine)-4-pyrrole]-4-4pyrrolyl] fumaride dihydrochloride]
[1]; [20]
  […] % of Control: 83.05 % of Control
[1]; [21]
  […] % of Control: 90.26 % of Control
[1]; [22]
  […] % of Control: 151.83 % of Control
[1]; [23]
  […] % of Control: 88.21 % of Control
[1]; [24]
  […] % of Control: 67.56 % of Control
[1]; [25]
  […] % of Control: 83.87 % of Control
[2]; [11]
  EC50: 1670 nM
[2]; Table XI
  EC50: 1370 nM
[2]; [20]
  INFECTED RESPONSE % of Control: 18.00 % of Control
[2]; [21]
  INFECTED RESPONSE % of Control: 26.15 % of Control
[2]; [22]
  INFECTED RESPONSE % of Control: 96.78 % of Control
[2]; [23]
  INFECTED RESPONSE % of Control: 20.00 % of Control
[2]; [24]
  INFECTED RESPONSE % of Control: 22.96 % of Control
[2]; [25]
  INFECTED RESPONSE % of Control: 38.90 % of Control
[3]
  Kapp: 4.9e+07 M⁻¹

## Cl.Cl.Cn1cc(NC(=O)c2cc(NC(=O)/C=C\C(=O)Nc3cc(C(=O)Nc4cc(C(=O)NCCC(=N)N)n(C)c4)n(C)c3)cn2C)cc1C(=O)NCCC(=N)N [Compound 22b, N,N'-Di(1-methyl-2-carboxamido(3-(proprionamidine-4-pyrrole]-4-pyrrolyl)maleamidedihydrochloride]
[2]; [11]
  EC50: 4040 nM
[2]; Table XI
  EC50: 350 nM
